From paper PMC8151276, “An Integrated Approach toward NanoBRET Tracers for Analysis of GPCR Ligand Engagement” (Molecules, 2021)
One block for each compound: values may come before it.

Assays:
ADRA2A = biological target: T1, ADRA2A (Homo sapiens, UniProt P08913); assay: NanoBRET screen HiBiT-ADRA2A in HEK293; type: binding
T1 construct: purchased Promega (in-house HiBiT-GPCR construct library, NanoBRET)
T1 sequence (P08913 1-465): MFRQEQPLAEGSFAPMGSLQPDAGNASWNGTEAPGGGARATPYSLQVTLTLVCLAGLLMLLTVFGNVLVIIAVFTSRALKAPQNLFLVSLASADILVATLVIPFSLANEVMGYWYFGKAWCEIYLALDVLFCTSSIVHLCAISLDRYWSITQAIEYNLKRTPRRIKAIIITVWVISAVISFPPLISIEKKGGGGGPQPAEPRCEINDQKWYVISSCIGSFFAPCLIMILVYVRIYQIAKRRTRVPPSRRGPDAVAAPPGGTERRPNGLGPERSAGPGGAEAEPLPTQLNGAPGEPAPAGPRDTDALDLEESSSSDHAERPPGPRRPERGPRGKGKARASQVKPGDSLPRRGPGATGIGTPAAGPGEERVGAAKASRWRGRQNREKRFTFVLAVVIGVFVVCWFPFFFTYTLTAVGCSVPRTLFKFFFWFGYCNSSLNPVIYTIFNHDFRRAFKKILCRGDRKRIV
Method: (§1) Each tracer candidate was screened across the entire library of HiBiT-GPCR constructs using NanoBRET as the detection modality. As depicted in Figure 4A, the specificity of interactions was evaluated through decrease in BRET due to competitive displacement of a bound tracer by excess parental compound. Each tracer was analyzed for binding to each HiBiT-GPCR fusion in the absence and in the presence of competing parental compound. Briefly, HEK293 cells were transfected with HiBiT-GPCR constructs diluted into promoterless DNA to reduce expression and maximize translocation to the cell surface. Each tracer candidate was then screened at concentrations of 1 μM and 0.1 μM across cells expressing these fusions. Cells were treated for 1.5 h with tracer either alone or in the presence of 20 μM competing parental compound (i.e., control). BRET was measured upon addition of purified LgBiT and subsequent complementation with HiBiT genetically fused to a GPCR. The specificity of interactions was assessed through a decrease in BRET signal due to competitive displacement of the bound tracer. To further gauge the robustness of these interactions, the fold response over the control (i.e., BRETtracer/BRETcontrol) was calculated. We chose a 1.5-fold response, which translates to ≥7-fold signal over noise as the minimal threshold required to score an interaction as positive.
(§2) HiBiT-GPCR DNA constructs were diluted in 10 mM Tris pH 8 to a final concentration of 0.01 μg/μL, arrayed in 96-well plates and stored at −20 °C. For transfection, HEK293 cells were suspended in Opti-MEM (without phenol red) supplemented with 2% fetal bovine serum (Seradigm) and 100 units/mL penicillin–streptomycin (Gibco) at a final concentration of 220,000 cells/mL and dispensed into white 96-well plates at 90 μL/well. Subsequent transfections and screens were carried using an Agilent Bravo Automated Liquid Handling Platform. First, the 96-well HiBiT DNA arrays were diluted 25-fold in Opti-MEM (without serum or phenol red) to a final concentration of 0.0004 μg/μL and 20 μL of the diluted DNAs were transferred into new 96-well plates. Next, promoterless carrier DNA (1 μg/μL) was diluted 25-fold (0.04 μg/μL) and then dispensed into the diluted arrays at 20 μL/well. Following brief mixing, Viafect transfection reagent (Promega) diluted 16-fold into Opti-MEM was dispensed into the plates at 40 μL/well. After mixing by pipetting, plates were incubated for 10 min on the pipetting station deck. The DNA-transfection reagent complexes were then added to plates containing cells. To facilitate the screen, 10 μL of DNA-transfection reagent complexes were added in duplicates to the top 4 and bottom 4 rows, resulting in two identical 48-well arrays per plate. Plates with transfected cells were incubated for 18–20 h at 37 °C/5% CO2. A screen of each tracer across the entire library using two different concentrations requires duplicate plates of transfected cells. Depending on the number of tracers being screened, transfections can be scaled up using the same ratios. The next day, for each tracer, four 20× screening solutions in tracer dilution buffer (Promega) were prepared: two duplicates at final concentration of 20 μM and two duplicates at a final concentration of 2 μM. […] The four resulting solutions were diluted 4-fold in Opti-MEM without serum or phenol red to generate 5× solutions (5 µM and 0.5 µM tracer +/− 100 μM competing compound). To screen the library, a BioTek MultiFlo FX liquid dispenser was used to dispense 22.5 µL of tracer solution to the top 4 rows and 22.5 µL tracer + competing compound solution to the 4 bottom rows. Plates were briefly mixed on an orbital shaker and incubated for 1.5 h at room temperature. […] Plates were briefly mixed on an orbital shaker and incubated for 15 min to allow complementation.

CHRM2 = biological target: T2, CHRM2 (Homo sapiens, UniProt P08172); assay: NanoBRET screen HiBiT-CHRM2 in HEK293; type: binding
T2 construct: purchased Promega (in-house HiBiT-GPCR construct library, NanoBRET)
T2 sequence (P08172 1-466): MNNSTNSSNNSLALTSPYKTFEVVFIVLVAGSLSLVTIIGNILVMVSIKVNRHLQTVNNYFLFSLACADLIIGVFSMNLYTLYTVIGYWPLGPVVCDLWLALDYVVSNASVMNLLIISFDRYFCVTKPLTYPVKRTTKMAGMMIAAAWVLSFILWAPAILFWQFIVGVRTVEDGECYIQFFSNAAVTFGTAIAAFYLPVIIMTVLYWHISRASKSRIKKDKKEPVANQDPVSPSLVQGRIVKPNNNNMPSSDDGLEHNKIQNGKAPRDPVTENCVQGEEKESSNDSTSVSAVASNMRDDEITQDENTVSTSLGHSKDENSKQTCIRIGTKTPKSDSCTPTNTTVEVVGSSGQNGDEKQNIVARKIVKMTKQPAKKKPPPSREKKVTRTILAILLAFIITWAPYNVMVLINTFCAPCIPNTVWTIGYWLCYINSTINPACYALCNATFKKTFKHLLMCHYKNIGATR
Method: as §1, §2

[1] = tracer at 0.1μM, listed as amitriptyline-b-2-NB590
[2] = tracer at 1μM, listed as amitriptyline-b-2-NB590

NanoBRET Fold Response (ADRA2A; ADRA2A, other tracers/Aminopotentidine (unmodified), 0.1μM): 1.01
NanoBRET Fold Response (ADRA2A; ADRA2A, other tracers/Aminopotentidine (unmodified), 1μM): 1.67
SMILES: N#CN/C(=N\CCNC(=O)c1ccc(N)cc1)NCCCOc1cccc(CN2CCCCC2)c1 [Aminopotentidine (unmodified)]

NanoBRET Fold Response (ADRA2A; ADRA2A, tracer 0.1μM): 1.04
NanoBRET Fold Response (ADRA2A; ADRA2A, tracer 1μM): 1.26
NanoBRET Fold Response (CHRM2; CHRM2, tracer 0.1μM): 1.66
NanoBRET Fold Response (CHRM2; CHRM2, tracer 1μM): 1.68
SMILES: N#CN=C(NCCCOc1cccc(CN2CCCCC2)c1)NCCNC(=O)CCOCCOCCOCCOCCNC(=O)CCc1ccc2n1[B-](F)(F)[N+]1=C(c3ccc[nH]3)C=CC1=C2 [Aminopotentidine-2-NB590]

NanoBRET Fold Response (ADRA2A; 0.1μM tracer): 1.08
NanoBRET Fold Response (ADRA2A; 1μM tracer): 1.01
NanoBRET Fold Response (CHRM2; 0.1μM tracer): 0.80
NanoBRET Fold Response (CHRM2; 1μM tracer): 1.35
SMILES: COc1ccc2c(n1)c(CCNC(C)=O)cn2CCNC(=O)CCc1ccc2n1[B-](F)(F)[N+]1=C(c3ccc[nH]3)C=CC1=C2 [Azamelatonin-1-NB590]

NanoBRET Fold Response (ADRA2A; 0.1μM tracer): 1.01
NanoBRET Fold Response (ADRA2A; 1μM tracer): 1.06
NanoBRET Fold Response (CHRM2; 0.1μM tracer): 1.08
NanoBRET Fold Response (CHRM2; 1μM tracer): 0.86
SMILES: COc1ccc2[nH]c(-c3ccc(CNC(=O)CCOCCOCCOCCOCCNC(=O)CCc4ccc5n4[B-](F)(F)[N+]4=C(c6ccc[nH]6)C=CC4=C5)cc3)c(CCNC(C)=O)c2n1 [AzomelatoninICO9-2-NB590]

NanoBRET Fold Response (ADRA2A; ADRA2A, 0.1μM tracer): 1.27
NanoBRET Fold Response (ADRA2A; ADRA2A, 1μM tracer): 1.78
NanoBRET Fold Response (CHRM2; CHRM2, 0.1μM tracer): 1.50
NanoBRET Fold Response (CHRM2; CHRM2, 1μM tracer): 1.49
SMILES: O=C(CCOCCOCCOCCOCCNC(=O)CCc1ccc2n1[B-](F)(F)[N+]1=C(c3ccc[nH]3)C=CC1=C2)NCCCN1CCN(C2=Nc3cc(Cl)ccc3Nc3ccccc32)CC1 [Clozapine-a-2-NB590]

Continued, compound first:

SMILES: CCOC(=O)c1cc(C#N)c(N2CCC(C(=O)NS(=O)(=O)Cc3ccccc3/C=C/C(=O)NCCNC(=O)CCc3ccc4n3[B-](F)(F)[N+]3=C(c5ccc[nH]5)C=CC3=C4)CC2)nc1C [AZD1283-1-NB590]
NanoBRET Fold Response (ADRA2A; ADRA2A, 0.1μM): 1.04
NanoBRET Fold Response (ADRA2A; ADRA2A, 1μM): 1.13
NanoBRET Fold Response (CHRM2; CHRM2, 0.1μM): 1.05
NanoBRET Fold Response (CHRM2; CHRM2, 1μM): 0.96

SMILES: CN(C)CCC=C1c2ccccc2CCc2ccc(C(=O)NCCNC(=O)CCOCCOCCOCCOCCNC(=O)CCc3ccc4n3[B-](F)(F)[N+]3=C(c5ccc[nH]5)C=CC3=C4)cc21 [Amitriptyline-a-2-NB590]
NanoBRET Fold Response (ADRA2A; tracer at 0.1μM): 1.03
NanoBRET Fold Response (ADRA2A; tracer at 1μM): 1.12
NanoBRET Fold Response (CHRM2; tracer at 0.1μM): 1.10
NanoBRET Fold Response (CHRM2; tracer at 1μM): 0.98

SMILES: CN(C)CCC=C1c2ccccc2CCc2ccc(C(=O)NCCNC(=O)CCOCCOCCOCCOCCNC(=O)CCc3ccc4n3[B-](F)(F)[N+]3=C(c5ccc[nH]5)C=CC3=C4)cc21 [Amitriptyline-b-2-NB590]
NanoBRET Fold Response (ADRA2A; [1]): 1.11
NanoBRET Fold Response (ADRA2A; [2]): 1.00
NanoBRET Fold Response (CHRM2; [1]): 2.20
NanoBRET Fold Response (CHRM2; [2]): 1.55

SMILES: CN(CCC=C1c2ccccc2CCc2ccccc21)C(=O)CCOCCOCCOCCOCCNC(=O)CCc1ccc2n1[B-](F)(F)[N+]1=C(c3ccc[nH]3)C=CC1=C2 [Amitriptyline-e-2-NB590]
NanoBRET Fold Response (ADRA2A; tracer at 1μM): 1.09
NanoBRET Fold Response (CHRM2; tracer at 1μM): 1.05
